Laboratory results published in US20240166723A1, “MECHANOCHEMICAL GENERATION OF NOVEL COLLAGEN GEL ARCHITECTURES AND SCAFFOLDS” (Yale University, priority 2022, published 2024).

Assays:
[1] = tested on: MDA-MB-231 cells; experiment: Morphology of MDA-MB-231 cells under drug treatment in normal versus thick collagen; format: cell-based, human; settings: for cell shape and protrusions / cell morphology versus control: normal and thick collagen; for cell shape and protrusions / F-actin accumulation on the cell periphery: day2; for cell morphology versus control: Y27632 30 μM, CK666 50 μM, SMIFH2 50 μM; for effect on cell morphology: normal collagen
Experimental: (§1) To investigate the specific molecular mechanism behind the elevated migration of MDA-MB-231 cells in thick collagen, the following drugs were tested in these gels: pan-MMP inhibitor GM6001 (20 μM), potent selective Cdc42 inhibitor ML141 (10 μM), ROCK inhibitor Y27632 (30 μM), ARP2/3 inhibitor CK666 (50 μM), formin inhibitor SMIFH2 (50 μM) and Rac1 inhibitors NSC23766 (100 μM) and EHT1864 (20 μM). First cell morphology was traced and quantified. […] The graphic illustration of each morphological index can be found in FIG. 12B.
(§2) Drugs were reconstituted and stored following manufacturers' recommendations and diluted in culture media to working concentrations. Specifically, 20 μM pan-MMPs inhibitor GM6001(Abcam, ab120845), 30 μM ROCK inhibitor Y27632 (Abcam, ab144494), 10 μM Cdc42 inhibitor ML141 (Calbiochem®217708), 50 μM formin inhibitor SMIFH2 (Abcam, ab218296), 50 μM ARP2/3 inhibitor CK666 (Abcam, ab141231), 100 μM Rac1 inhibitor NSC23766, 20 μM Rac1 inhibitor EHT1864 (Cayman 17258) were used. Fresh media mixed with specific drug were prepared right before experiment and replaced daily. In the drug assays, at least two independent experiments were performed with at least two replicates (technical duplicates) in each experiment.
In this equation, N is the total step number, n is the n-th step, x,y are the x,y coordinates respectively. For morphology analysis, z projected tilescan images were segmented and analyzed by in-house MATLAB codes. Segmentation performance was validated, with wrong segmentation manually corrected or removed. For difficult automatic segmentation data such as the Y27632 treated condition, manually tracked data were supplemented. The definitions of elongation, compactness, sphericity and shape variance were described in FIG. 4B (Liu, Scientific Reports 2022, 12, 791). A custom ImageJ script was used to derive the colocalization of the YAP/TAZ signal in the nucleus and cytoplasm. Specifically, the central plane of each cell is first extracted. DAPI and YAP/TAZ channels are then used to produce masks for cell nucleus and cell body respectively. Nucleus YAP/TAZ is calculated by averaging YAP/TAZ intensity within the nucleus mask and cytoplasmic YAP/TAZ is calculated by averaging YAP/TAZ intensity outside the nucleus mask but within cell body. To note, only YAP/TAZ of focal plane is used for average calculation. For thick collagen bundle size measurement, “Analyze Particle” function from Fiji was used.

[2] = tested on: PDGF-induced lamellipodia formation; settings: cited from earlier work
[3] = tested on: MDA-MB-231 cells; experiment: Migration inhibition drug assay: MDA-MB-231 cell migration in 3D collagen; format: cell-based, human; settings: thick collagen, day0 and day1; GM6001 20 μM, Y27632 30 μM, ML141 10 μM, SMIFH2 50 μM, NSC23766 100 μM
Experimental: as §1
Apart from morphology signatures, cell migration was also tracked (FIG. 5A-C, FIG. 13A-B and FIG. 18A). […] GM6001-treated MDA-MB-231 cells in thick collagen migrated as actively as the DMSO control, both increased compared to cells in normal collagen. […] However, the interpretation of NSC23766 was confounded by the poor performance of another […]. NSC23766 binds directly to Rac1 and blocks the interaction between GEF Trio or Tiam (Gao et al., Proceedings Of The National Academy Of Sciences Of The United States Of America, 2004, 101, 7618-7623). EHT1864 binds to Rac1 but it is an allosteric inhibitor for guanine association. […] The differential preference between MDA-MB-231 cells for a stiff substrate and metastatic ovarian cancer cells (MOCC) for compliant substrate for migration (McGrail et al., Journal of Cell Science 2014, 127, 2621-2626); McGrail et al., Physical Biology 2015, 12, 026001) may be dictated by Rac1 and […], respectively.
as §2
Imaging was performed using a Leica SP8 confocal microscope. Time-lapse imaging (XYZT mode) was taken with a 20× objective (0.75 NA), with time interval set to 3 minutes or 6 minutes and z-step size set to 2 μm. Day0 time-lapse imaging was acquired between around 0hr to 12 hrs post embedding cells into gels. Day1 time-lapse imaging was acquired between around 24 hrs to 36 hrs post gel-embedment. Overview tilescan images were taken at day1, day2 or day5 respectively.
To track cell migration, XYZT data were first reduced in dimensions by conducting standard deviation projection along the z-axis. The XYT data were then processed by TrackMate in Fiji and produced cell trajectories. Trajectories were exported to MATLAB to calculate average speed and mean squared displacement. Average speed specifically refers to the mean of the absolute value of the net displacement of the cell center per hour. Mean squared displacements were computed with the following equation (Gorelik, Nature Protocols 2014, 9, 1931-1943): […]

[4] = tested on: SKOV3ip; settings: 2D conditions; cited from earlier work
[5] = tested on: human pancreatic cancer cells PANC-1; settings: aligned matrix fiber; cited from earlier work
[6] = tested on: OVCA429; settings: 2D conditions; cited from earlier work
[7] = tested on: D1 murine mesenchymal stem cells (MSCs); experiment: MSC migration in collagen gels, time-lapse confocal cell tracking; settings: MSCs treated with inhibitors of myosin-based contractility, day 6
Experimental: To determine how island architecture modulates stem cell behavior, DI MSC's were seeded in gels that were adherent to polydopamine covered glass (FIG. 37). Polydopamine allows for collagen to remain anchored to surfaces for imaging and prevents total compaction of the gel during experiments (Park et al., ACS Applied Materials & Interfaces 2019, 11, 23919-23925). MSC migration in gels were then visualized. To capture cell migration in these gels, a stable LifeAct-RFP dye was transduced into MSCs and then these encapsulated cells were imaged with time-lapse confocal fluorescence microscopy. Cell tracking analysis was performed to determine migration metrics (FIG. 22A). The cells both 1 day after seeding and 6 days after seeding were imaged for 12 hour timelapses. […] After 6 days of culture, differences in migratory behavior were observed between MSCs cultured in different island gels (FIG. 22B).
D1 MSCs or D1 MSC-LifeActRFP cells were mixed with the collagen solution prior to gelation to achieve a final cell concentration of 15000 cells/ml. Cells were cultured in 50%/50% mixture of the osteogenic induction medium and adipogenic induction medium (differentiation medium). The differentiation medium contained 50 μg/ml L-ascorbic acid (MilliporeSigma), 10 mM β-glycerophosphate (MilliporeSigma), and 0.1 μM dexamethasone (MilliporeSigma) in the DMEM growth medium.
MSC time lapses were performed in 12 well glass bottom dishes which had been polydopamine coated. 12 hour time lapses were taken on Day 1 and Day 6. Automatic cell segmentation was obtained using Imaris (Oxford Instruments). Manual filtering was done to determine which cells were to be used for downstream analysis. From these segmentations, cell movement was tracked and metrics such as mean speed, sphericity, and migration track length over the timelapse were obtained. Mean speed is defined as the average of instantaneous speeds between timepoints.

[8] = tested on: chronic lymphocytic leukemia cells; settings: cited from earlier work

Structure (SMILES)	cell shape and protrusions [1]	cell morphology versus control ([1]; NSC23766 100 μM)	effect on cell morphology [1]	MDA-MB-231 cell migration [3]	cell migration track length [7]	further results
Cc1[nH]c2ccccc2c1CCNC(=O)c1ccccc1F [CK666]	elongated and stretched	distinct morphologies compared with control	–	–	–	–
O=c1cc(CN2CCOCC2)occ1OCCCCCSc1ccnc2cc(C(F)(F)F)ccc12 [EHT1864]	–	–	all cells are round	–	–	PDGF-induced lamellipodia formation [2]: can inhibit PDGF-induced lamellipodia formation
CNC(=O)[C@H](Cc1c[nH]c2ccccc12)NC(=O)[C@@H](CC(=O)NO)CC(C)C [GM6001]	–	–	all cells are round	failed to inhibit MDA-MB-231 cell migration	–	–
COc1ccc(C2CC(c3ccccc3)=NN2c2ccc(S(N)(=O)=O)cc2)cc1 (centres unmarked) [ML141]	–	–	all cells are round	did not show significant inhibition	–	inhibition of migration [4]: does inhibit; cell movement [5]: moved faster in aligned matrix fiber regardless of ML141 treatment; inhibition of migration [6]: does inhibit
O=S(=O)(c1cccc2c(I)cccc12)N1CCCNCC1 [ML-7]	–	–	–	–	decreases in cell migration track length	–
CCN(CC)CCCC(C)Nc1nc(C)cc(Nc2ccc3nc(C)cc(N)c3c2)n1 (centres unmarked) [NSC23766]	–	distinct morphologies compared with control	all cells are round	significantly reduced MDA-MB-231 cell migration	decreases in cell migration track length	cell movement [5]: inhibited cell movement, regardless of collagen fiber orientation; cell size ([1]; NSC23766 100 μM): smaller than most other drug conditions; F-actin accumulation on the cell periphery [1]: clearly visible; proliferation [8]: proliferation arrest
O=C1NC(=S)N(c2cccc(Br)c2)C(=O)/C1=C/c1ccco1 [SMIFH2]	round and lacked cell peripheral fluctuations	distinct morphologies compared with control	all cells are round	significantly reduced MDA-MB-231 cell migration	–	F-actin accumulation on the cell periphery [1]: lacked F-actin accumulation on the cell periphery
C[C@@H](N)[C@H]1CC[C@H](C(=O)Nc2ccncc2)CC1 [Y27632]	extremely long cell protrusions	distinct morphologies compared with control	–	significantly reduced MDA-MB-231 cell migration	decreases in cell migration track length	–
